Assay: mn = molality of the nth substance listed, in mol/kg
Settings: 100 kPa, Liquid; for viscosity: Capillary tube (Ostwald / Ubbelohde) method; for mass density: Vibrating tube method

O [water] + C[C@@H](O)[C@H](N)C(=O)O
m2 = 0
Settings	mass density [kg/m3]	viscosity [mPa·s]
293.15 K	–	1.002
303.15 K	–	0.798
313.15 K	–	0.654
323.15 K	988.02	0.547

O [water] + N=C(N)NCCC[C@H](N)C(=O)O
m2 = 0
Settings	mass density [kg/m3]	viscosity [mPa·s]
293.15 K	–	1.002
303.15 K	–	0.798
313.15 K	–	0.654
323.15 K	988.02	0.547

CC(C)[C@H](N)C(=O)O [L-valine] + O
Settings	mass density, 293.15 K [kg/m3]	mass density, 303.15 K [kg/m3]	mass density, 313.15 K [kg/m3]	mass density, 323.15 K [kg/m3]	viscosity, 293.15 K [mPa·s]	viscosity, 303.15 K [mPa·s]	viscosity, 313.15 K [mPa·s]	viscosity, 323.15 K [mPa·s]
m1 = 0.1	1000.87	998.32	994.85	990.59	1.044	0.83	0.678	0.567
m1 = 0.2	1003.5	1000.9	997.4	993.09	1.088	0.864	0.704	0.587
m1 = 0.3	1006.05	1003.43	999.89	995.54	1.134	0.899	0.731	0.608
m1 = 0.4	1008.55	1005.9	1002.34	997.95	1.183	0.936	0.76	0.63

O [water] + NCC(=O)O
m2 = 0
Settings	mass density [kg/m3]	viscosity [mPa·s]
293.15 K	–	1.002
303.15 K	–	0.798
313.15 K	–	0.654
323.15 K	988.02	0.547

C[C@H](N)C(=O)O [(S)-2-aminopropanoic acid] + O
Settings	mass density, 293.15 K [kg/m3]	mass density, 303.15 K [kg/m3]	mass density, 313.15 K [kg/m3]	mass density, 323.15 K [kg/m3]	viscosity, 293.15 K [mPa·s]	viscosity, 303.15 K [mPa·s]	viscosity, 313.15 K [mPa·s]	viscosity, 323.15 K [mPa·s]
m1 = 0.1	1001.06	998.5	995.04	990.8	1.027	0.817	0.669	0.559
m1 = 0.2	1003.89	1001.29	997.81	993.55	1.053	0.837	0.684	0.571
m1 = 0.3	1006.66	1004.03	1000.5	996.24	1.079	0.857	0.7	0.584
m1 = 0.4	–	–	–	–	1.106	0.878	0.716	0.597
m1 = 0.401	1009.41	1006.73	1003.18	998.9	–	–	–	–
m1 = 0.5	1012.07	1009.37	1005.79	1001.49	1.134	0.898	0.733	0.611
m1 = 0.6	1014.71	1011.97	1008.36	1004.08	1.163	0.921	0.751	0.624
m1 = 0.7	1017.29	1014.52	1010.9	1006.6	1.193	0.943	0.768	0.638

C[C@@H](O)[C@H](N)C(=O)O [L-threonine] + O
Settings	mass density, 293.15 K [kg/m3]	mass density, 303.15 K [kg/m3]	mass density, 313.15 K [kg/m3]	mass density, 323.15 K [kg/m3]	viscosity, 293.15 K [mPa·s]	viscosity, 303.15 K [mPa·s]	viscosity, 313.15 K [mPa·s]	viscosity, 323.15 K [mPa·s]
m1 = 0.1	1002.4	999.82	996.36	992.09	1.035	0.823	0.673	0.563
m1 = 0.2	1006.54	1003.91	1000.4	996.09	1.07	0.85	0.694	0.579
m1 = 0.3	1010.59	1007.91	1004.35	1000.01	1.105	0.878	0.717	0.596
m1 = 0.4	1014.57	1011.83	1008.22	1003.85	1.143	0.907	0.739	0.615
m1 = 0.5	1018.46	1015.67	1012.03	1007.62	1.182	0.936	0.763	0.632
m1 = 0.6	1022.28	1019.43	1015.75	1011.32	1.221	0.967	0.787	0.651
m1 = 0.7	1026.03	1023.14	1019.41	1014.96	1.263	0.999	0.811	0.67

O [water] + CC(C)[C@H](N)C(=O)O
m2 = 0
Settings	mass density [kg/m3]	viscosity [mPa·s]
293.15 K	–	1.002
303.15 K	–	0.798
313.15 K	–	0.654
323.15 K	988.02	0.547

N=C(N)NCCC[C@H](N)C(=O)O [L-arginine] + O
Settings	mass density, 293.15 K [kg/m3]	mass density, 303.15 K [kg/m3]	mass density, 313.15 K [kg/m3]	mass density, 323.15 K [kg/m3]	viscosity, 293.15 K [mPa·s]	viscosity, 303.15 K [mPa·s]	viscosity, 313.15 K [mPa·s]	viscosity, 323.15 K [mPa·s]
m1 = 0.1	1003.16	1000.56	997.08	992.8	1.054	0.837	0.684	0.572
m1 = 0.2	1007.98	1005.3	1001.76	997.43	1.109	0.879	0.716	0.598
m1 = 0.3	1012.67	1009.89	1006.3	1001.92	1.167	0.922	0.751	0.625
m1 = 0.4	1017.19	1014.33	1010.71	1006.3	1.229	0.969	0.786	0.653
m1 = 0.5	1021.57	1018.66	1014.97	1010.54	1.296	1.019	0.825	0.682
m1 = 0.6	1025.85	1022.85	1019.13	1014.68	1.366	1.069	0.863	0.713
m1 = 0.7	1030	1026.94	1023.18	1018.67	1.435	1.121	0.903	0.743

NCC(=O)O [2-aminoacetic acid] + O
Settings	mass density, 293.15 K [kg/m3]	mass density, 303.15 K [kg/m3]	mass density, 313.15 K [kg/m3]	mass density, 323.15 K [kg/m3]	viscosity, 293.15 K [mPa·s]	viscosity, 303.15 K [mPa·s]	viscosity, 313.15 K [mPa·s]	viscosity, 323.15 K [mPa·s]
m1 = 0.1	1001.39	998.81	–	991.09	1.014	0.809	0.663	0.556
m1 = 0.2	1004.56	1001.91	–	994.12	1.027	0.82	0.673	0.565
m1 = 0.3	1007.67	1004.97	1001.42	997.11	1.041	0.832	0.683	0.574
m1 = 0.4	1010.73	1007.98	1004.4	1000.05	1.055	0.844	0.693	0.582
m1 = 0.5	1013.74	1010.94	1007.32	1002.96	1.07	0.856	0.704	0.591
m1 = 0.6	1016.72	1013.87	1010.23	1005.85	1.085	0.868	0.714	0.6
m1 = 0.7	1019.66	1016.75	1013.06	1008.69	1.101	0.881	0.724	0.61

O [water] + C[C@H](N)C(=O)O
m2 = 0
Settings	mass density [kg/m3]	viscosity [mPa·s]
293.15 K	–	1.002
303.15 K	–	0.798
313.15 K	–	0.654
323.15 K	988.02	0.547

O [water] + OC[C@@H](O)[C@@H](O[C@H]1O[C@H](CO)[C@@H](O)[C@H](O)[C@H]1O)[C@H](O)[C@@H](O)CO
m2 = 0
Settings	mass density [kg/m3]	viscosity [mPa·s]
293.15 K	–	1.002
303.15 K	–	0.798
313.15 K	–	0.654
323.15 K	988.02	0.547

OC[C@@H](O)[C@@H](O[C@H]1O[C@H](CO)[C@@H](O)[C@H](O)[C@H]1O)[C@H](O)[C@@H](O)CO [4-O-α-D-glucopyranosyl-D-glucitol] + O
Settings	mass density, m1 = 0.2 [kg/m3]	mass density, m1 = 0.4 [kg/m3]	mass density, m1 = 0.6 [kg/m3]	mass density, m1 = 0.8 [kg/m3]	mass density, m1 = 1 [kg/m3]	viscosity, m1 = 0.2 [mPa·s]	viscosity, m1 = 0.4 [mPa·s]	viscosity, m1 = 0.6 [mPa·s]	viscosity, m1 = 0.8 [mPa·s]	viscosity, m1 = 1 [mPa·s]
293.15 K	1022.97	1045.59	1066.2	1085.31	1102.86	1.202	1.457	1.761	2.142	2.61
303.15 K	1020.13	1042.41	1062.88	1081.69	1099.07	0.95	1.134	1.353	1.626	1.954
313.15 K	1016.42	1038.47	1058.71	1077.36	1094.66	0.77	0.909	1.073	1.277	1.511
323.15 K	1012.07	1033.97	1054.01	1072.55	1089.71	0.641	0.747	0.874	1.027	1.204
